2 substances from patent US20250066417A9, “NEW PEPTIDE-BASED DIAGNOSTIC AND THERAPEUTIC AGENTS” (ENLITISA (SHANGHAI) PHARMACEUTICAL CO., LTD., priority 2021, published 2025) can be followed below.

Data set [1] is described as follows: Pharmacokinetic study of tritium-labelled peptide after rectal administration (total radioactivity by liquid scintillation). As to conditions: for Total radioactivity at 168 h (Cmax %): 168 h as % of Cmax.
Description: 1 mL of a pH 5.0 acetic acid solution was added to the product of Example 3 above with even mixing. 0.952 mL of the resultant solution was added to a 40 mL glass bottle.
About 200 μL of 0.5% Evans Blue aqueous solution was added followed by even mixing. […] 30 Sprague-Dawley rats, half male and half female (Beijing Vital River Laboratory Animal Technology Co., Ltd.) were quarantined and acclimatised in polycarbonate cages for 5 to 7 days. The environmental conditions were controlled at room temperature of between 20° C. and 26° C., with a relative humidity of between 40% and 70%, with 12 hours of alternating lightness and darkness.
The body weights required for randomization were obtained on Day 1 (before dosing). After randomization, rats were assigned to one of five groups (three animals per sex in each group).
After weighing, animals were anesthetized by Intramuscular Injection of Zoletil-50. The animals were placed on their backs. Stools at the end of their rectums were gently squeezed out, and the skin around anus was disinfected with 75% alcohol.
A closed catheter (No. 8, double lumen with guide wire) was Inserted Into the anus of the rats to a depth of about 3 cm, and then a gastric lavage needle was slowly Inserted to a depth of at least 3.5 cm. After lifting the perlanal skin, fixing the catheter and the gavage needle, about 1 mL of water was Injected Into the bladder cavity of the syringe guide catheter to make it expand. Then the gel comprising the title compound was given quickly through the needle.
After administration, the catheter was ligated and fixed by wrapping tape around the root of the rats' tails. The catheter remained in the rectum for about 4 hours before removal.
Blood, rectal contents and rectal mucosa samples were collected. All centrifuge tubes coated with EDTA-K2 were stored either in a refrigerator (at 2 to 8° C.) or In a cooler filled with Ice, and were protected from light prior to use. The collected blood was transferred Into the centrifuge tubes and stored in an Ice box protected from light after being mixed manually by reversing the tubes at least 5 times.
Then, the tubes were centrifuged at 1800 g for 10 minutes at between 2 and 8° C., 2 hours after blood collection. After centrifugation, the collected plasma samples were transferred Into newly-labeled centrifuge tubes and aliquoted Into two sets, stored ay below −70° C.
Plasma, rectal contents and rectal mucosa samples were analyzed using a liquid scintillation counter, and the radioactive concentration was calculated according to the actual sampling volume. Half-lives were also calculated using WinNonlin software. MS Excel was used for data statistical analysis, including mean, standard deviation (SD), and coefficient of variation (CV), etc.
Total radioactivity unit (ng Eq./g)=DPM/g÷S.A. ×1000, S.A.=144,300 DPM/μg
In data set [2] the test system is rat rectum. Briefly: In vivo adhesive study: fluorescence imaging of rat rectum after rectal injection. As to the method:
(§1) The title compound of Example 1 above was dissolved in distilled water to make a 0.05 mg/mL solution. The fluorescence absorption of the solution was scanned at 520 nm using a Hitachi F-7000 fluorescence spectrophotometer with an Interval of 20 nm. The optimal excitation wavelength was 450 nm and the maximum absorption wavelength was 521 nm.
In an in vivo study, four rats were anesthetized by intraperitoneal injection of 5% chloral hydrate at a dose of 7 ml/kg. 1 mL of the solution of test compound was Injected Into the rectum using a 2 mL syringe. Swallowtail clamps were used to seal the anus to keep the liquid in rectum for about 2 hours. Rats were sacrificed at 2 hours, 4 hours, 8 hours and 24 hours after injection of test compound.
(§2) In a separate ex vivo study, rats were anesthetized and their abdominal cavities opened. 8 cm of the rectum was removed and cut Into 2 pieces, with fat and contents stripped. 1 mL of normal saline was used to flush the rectal cavities, which were then placed Into a constant humidity plate. 1 mL of the solution of test compound was Injected Into the rectum and ligated at both ends. Samples were taken at 0 hours, 0.5 hours, 1 hour and 2 hours for fluorescence imaging. A MZX81 fluorescence stereomicroscope was used for imaging (Guangzhou Micro-Shot Technology Co., Ltd).
(§3) The fluorescence Images are show in FIG. 1 (in vivo study) and FIG. 2 (ex vivo study).

Data set [3] deals with rat rectum. Briefly: Ex vivo adhesive study: fluorescence imaging of excised rat rectum. To be noted: rat rectum, 0, 0.5, 1 and 2 hours, FIG. 2. The procedure: as §1, §2, §3
Data set [4] is described as follows: Fluorescence stability of the 0.05 mg/mL aqueous solution at room temperature. It is filed as physicochemical. To be noted: 0.05 mg/mL in distilled water, after one hour at room temperature. The procedure: as §1

“And” between values parts separate entries of the source, which are not always exact repeats. Equal values may be shown once. Bridges are numbered along the chain shown (N, C = ends). Roman numbers before positions name the chains, in order. Where no end group is shown, it is not given here. [ ]: non-standard residue; d: D form. Dopa = N[C@@H](Cc1ccc(O)c(O)c1)C(=O)O; ACP = 6-aminocaproic acid (linker); Hyp = O=C(O)[C@@H]1C[C@@H](O)CN1

As for “I: AKPSY[Hyp]T[Dopa][Hyp]KKK-OH / II: AKPSY[Hyp]T[Dopa][Hyp]KK / III: AKPSY[Hyp]T[Dopa][Hyp]K / IV: AKPSY[Hyp]T[Dopa][Hyp]K (amide I:11-IV:C, I:12-II:C, II:11-III:C) [Example 3, ^3H-Labelled [(Ala-Lys-Pro-Ser-Tyr-Hyp-Thr-DOPA-Hyp-Lys)2-Lys]2-Lys]”, the “radioactivity in rectal mucosa relative to rectal contents” value in data set [1] (24 hours after administration) is given as “about 6.01 times”; in data set [1] (72 hours after administration), around 3.32 times; in data set [1] (168 hours), 2.28 times. In data set [1] (one hour after rectal administration), the “radioactivity concentration of rectal mucosa relative to plasma” value turned out to be 1121 times. In addition, the Total radioactivity in data set [1] (plasma, 1 h, rectal 1.5 mg/100 μCi/kg, rats) is 47.8 ng Eq./g and 47.8 ± 12.2 ng Eq./g; in data set [1] (plasma, 6 h, rectal 1.5 mg/100 μCi/kg, rats), 54.1 ng Eq./g and 54.1 ± 14.4 ng Eq./g; in data set [1] (plasma, 24 h, rectal 1.5 mg/100 μCi/kg, rats), 18.6 ± 6.2 ng Eq./g; in data set [1] (plasma, 72 h, rectal 1.5 mg/100 μCi/kg, rats) it was 15.2 ± 8.4 ng Eq./g; in data set [1] (plasma, 168 h, rectal 1.5 mg/100 μCi/kg, rats), 13.3 ± 3.41 ng Eq./g; in data set [1] (rectal contents, 1 h, rectal 1.5 mg/100 μCi/kg, rats), 35322 ng Eq./g and 35322 ± 515 ng Eq./g. The Total radioactivity is 21981 ± 153 ng Eq./g in data set [1] (rectal contents, 6 h, rectal 1.5 mg/100 μCi/kg, rats); 56.4 ± 54. ng Eq./g in data set [1] (rectal contents, 24 h, rectal 1.5 mg/100 μCi/kg, rats); 44.3 ± 27. ng Eq./g in data set [1] (rectal contents, 72 h, rectal 1.5 mg/100 μCi/kg, rats); 16.5 ng Eq./g and 16.5 ± 6.88 ng Eq./g in data set [1] (rectal contents, 168 h, rectal 1.5 mg/100 μCi/kg, rats); 53593 ng Eq./g and 53593 ± 472 ng Eq./g in data set [1] (rectal mucosa, 1 h, rectal 1.5 mg/100 μCi/kg, rats); 11163 ng Eq./g and 11163 ± 702 ng Eq./g in data set [1] (rectal mucosa, 6 h, rectal 1.5 mg/100 μCi/kg, rats). The Total radioactivity was 339 ng Eq./g and 339 ± 95. ng Eq./g in data set [1] (rectal mucosa, 24 h, rectal 1.5 mg/100 μCi/kg, rats); 147 ng Eq./g and 147 ± 84. ng Eq./g in data set [1] (rectal mucosa, 72 h, rectal 1.5 mg/100 μCi/kg, rats); 37.6 ng Eq./g and 37.6 ± 10.2 ng Eq./g in data set [1] (rectal mucosa, 168 h, rectal 1.5 mg/100 μCi/kg, rats). Further, the “tolerability of the experimental dose” value in data set [1] (rectal 1.5 mg/100 μCi/kg, rats) is “well tolerated”. Further, in data set [1] (rectal 1.5 mg/100 μCi/kg, rats, whole experiment), the “adverse reaction after administration” value is given as “no obvious adverse reaction”. In addition, the “time of highest total radioactivity after administration” value in data set [1] (rectal contents) and in data set [1] (rectal mucosa) was 1 h each time. Besides, the “average concentration at 24 hours as % of Cmax” value is listed as around 0.16% in data set [1] (rectal contents) and “about 0.63%” in data set [1] (rectal mucosa). For the same substance, the “Total radioactivity at 168 h (Cmax %)” value in data set [1] (rectal contents) was found to be 0.05%; in data set [1] (rectal mucosa), 0.07%. For the same substance, the “radioactivity concentration of rectal mucosa relative to that at 1 h” value in data set [1] (rectal mucosa, 6 h (11163 ng Eq./g)) is reported as “about 20.83%”. For the same substance, in data set [1] (rectal mucosa, rectal contents and plasma, male vs female rats), the “gender differences in total radioactivity concentrations” value is given as “no significant gender differences”.

Regarding “[5-FITC-ACP-Ala-Lys-Pro-Ser-Tyr-Hyp-Thr-DOPA-Hyp-Lys)2-Lys]2-Lys ({5‑FITC-ACP}-AKPSY[Hyp]T[Dopa][Hyp]K; also: branched dendrimer: four peptide copies on a three-Lys core) [Example 1]”, the “adhesiveness of test compound to mucous” value is “very stable” in the data set on rat rectum [2] (rat rectum, 2, 4, 8 and 24 hours after injection, FIG. 1); “very stable” with rat rectum [3]. The “fluorescence intensity in the in vivo samples” value in the data set with rat rectum [2] (rat rectum, even with constant fecal excretion) is on record as “did not decrease significantly”. In addition, the “fluorescence intensity (stability of test compound in solution)” value in data set [4] was “did not change”.
